{"source": "patent US8273527B2", "about": "“Viral variants” (priority 1999, dated 2012)", "key": {"[1]": {"target": "HBV DNA polymerase-reverse transcriptase (Hepatitis B virus genotype D subtype ayw, UniProt P03156)", "sequence (P03156 whole entry)": "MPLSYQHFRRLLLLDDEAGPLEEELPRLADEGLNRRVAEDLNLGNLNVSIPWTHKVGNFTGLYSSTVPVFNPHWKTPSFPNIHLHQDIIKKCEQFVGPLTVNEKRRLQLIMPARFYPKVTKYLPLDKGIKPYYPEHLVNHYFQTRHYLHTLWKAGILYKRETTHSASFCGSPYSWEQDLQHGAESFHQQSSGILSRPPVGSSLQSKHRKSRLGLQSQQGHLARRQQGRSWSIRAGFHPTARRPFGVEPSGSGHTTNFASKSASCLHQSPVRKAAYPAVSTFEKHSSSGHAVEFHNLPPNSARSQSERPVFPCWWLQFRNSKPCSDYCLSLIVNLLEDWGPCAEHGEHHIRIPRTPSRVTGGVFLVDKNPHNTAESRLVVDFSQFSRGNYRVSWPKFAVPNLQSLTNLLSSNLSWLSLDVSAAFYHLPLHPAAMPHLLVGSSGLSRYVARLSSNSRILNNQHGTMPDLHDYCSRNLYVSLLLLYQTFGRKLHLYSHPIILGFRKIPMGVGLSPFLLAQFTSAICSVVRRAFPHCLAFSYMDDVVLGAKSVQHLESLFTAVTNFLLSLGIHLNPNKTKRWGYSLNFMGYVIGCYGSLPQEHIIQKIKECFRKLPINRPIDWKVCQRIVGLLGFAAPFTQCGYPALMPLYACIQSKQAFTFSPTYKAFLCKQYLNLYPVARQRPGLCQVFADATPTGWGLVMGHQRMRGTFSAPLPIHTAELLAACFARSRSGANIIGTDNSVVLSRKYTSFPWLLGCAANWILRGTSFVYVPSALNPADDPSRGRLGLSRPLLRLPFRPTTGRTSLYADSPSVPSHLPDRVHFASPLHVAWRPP", "settings": "in vitro; cited from earlier work"}, "duck HBV": {"tested_on": "duck HBV", "settings": "in vitro; cited from earlier work"}, "HBV [2]": {"tested_on": "HBV", "settings": "one patient with severe hepatitis B following OLT; cited from earlier work"}, "duck HBV virus": {"tested_on": "duck HBV virus", "settings": "oral, in vivo; cited from earlier work"}, "HBV [3]": {"tested_on": "HBV", "experiment": "FCV prophylaxis liver transplantation trial (response pre-OLT, HBV recurrence post-OLT)", "type": "in vivo, patients", "excerpt": "The clinical details of the FCV prophylaxis liver transplantation protocol as previously described (19). Briefly, the aim of the study was to compare the safety and efficacy of oral FCV and IV penciclovir in reducing the risk of hepatitis B re-infection post-OLT in liver transplant patients. The study design was a multicentre, randomized, part double-blind, part placebo controlled trial in patients with end stage liver disease requiring OLT. Patients with HBV DNA levels more than 90 pg/ml at study entry (by hybridization) [high replicators] were treated with both FCV and HBIG post-OLT. These high replicators were treated with FCV (500 mg tds) to reduce HBV DNA levels prior to OLT. Famciclovir treatment was continued for 12 months post-OLT. An untreated control group of patients with HBV DNA levels less than 90 pg/ml [low replicators] at study entry were treated with HBIG alone post-OLT. In the original study, thirty six patients underwent OLT, and of these the clinical and virological outcome of twenty-two of the FCV treated patients has recently been presented (17 Manns).\nTwenty six patients who had HBV levels more than 90 pg/ml at study entry (high HBV replicator [HR]) were treated with FCV pre-OLT and those patients who responded were then treated with HBIG plus FCV post-OLT. […]"}, "HBV [4]": {"tested_on": "HBV", "settings": "in vitro; cited from earlier work"}}, "data": [{"smiles": "Nc1nc2c(ncn2CCC(CO)CO)c(=O)[nH]1", "note": "[Penciclovir, penciclovir]", "values": [{"measurement": "inhibition of HBV DNA polymerase-reverse transcriptase activity", "setting": "[1]", "result": "inhibit"}, {"measurement": "inhibitory activity against duck HBV DNA synthesis", "setting": "duck HBV", "result": "potent inhibitory activity"}]}, {"smiles": "CC(=O)OCC(CCn1cnc2cnc(N)nc21)COC(C)=O", "note": "[FCV, famciclovir]", "values": [{"measurement": "effect on HBV DNA replication", "setting": "HBV [2]", "result": "reduce HBV DNA replication"}, {"measurement": "inhibition of intra-hepatic replication of duck HBV virus", "setting": "duck HBV virus", "result": "inhibit"}, {"measurement": "patients who responded to FCV", "setting": "HBV [3]; of 26 high HBV replicators (HBV more than 90 pg/ml at study entry) treated with FCV pre-OLT", "result": 19, "unit": "patients"}, {"measurement": "patients who did not initially respond to FCV", "setting": "HBV [3]; of the initial 26 high HBV replicators treated with FCV pre-OLT", "result": 6, "unit": "patients"}]}, {"smiles": "Nc1ncnc2c1ncn2CCOCP(=O)(O)O", "note": "[Adefovir]", "values": [{"measurement": "anti-HBV activity", "setting": "HBV [4]", "result": "effective anti-HBV activity"}]}]}
